# Results as given in patent US9969749B2, “Inhibitors of IRAK4 activity” (MERCK SHARP & DOHME CORP., priority 2014, dated 2018).
# Molecular target: IRAK4 (Homo sapiens (Human), UniProt Q9NWZ3)
# Assay: IRAK4 Kinase Assay (IMAP fluorescence polarization)
# Assay type: biochemical
# Conditions: 0.5 nM GST tagged IRAK4, 100 μM ATP, 100 nM fluorescent peptide substrate RP7030, 30 minutes at 25° C.
# Description: The kinase activity of IRAK4 is determined by its ability to catalyze the phosphorylation of a fluorescent polypeptide substrate. The extent of phosphorylation is measured using the IMAP technology (Molecular Devices) where the phosphorylated fluorescent substrate binds to the large M(III)-based nanoparticles which reduces the rotational speed of the substrate and thus increases its fluorescent polarization (FP).
# 20 μL reaction mixture contains 10 mM TriHCl, pH 7.2, 0.5 nM GST tagged IRAK4 (SignalChem), 100 nM fluorescent peptide substrate (RP7030, Molecular Devices), 100 μM ATP, 1 mM DDT, 1 mM MgCl2, and 0.01% Tween 20. The reaction is initiated by the addition of ATP. After incubation for 30 minutes at 25° C., 60 μL of Progressive IMAP Reagent (Molecular Devices) is added to stop the reaction. Change in RP7030's FP is determined by a FP reader (Analyst HT, LJL BioSystems).
# Sequence of IRAK4 (Q9NWZ3 whole entry): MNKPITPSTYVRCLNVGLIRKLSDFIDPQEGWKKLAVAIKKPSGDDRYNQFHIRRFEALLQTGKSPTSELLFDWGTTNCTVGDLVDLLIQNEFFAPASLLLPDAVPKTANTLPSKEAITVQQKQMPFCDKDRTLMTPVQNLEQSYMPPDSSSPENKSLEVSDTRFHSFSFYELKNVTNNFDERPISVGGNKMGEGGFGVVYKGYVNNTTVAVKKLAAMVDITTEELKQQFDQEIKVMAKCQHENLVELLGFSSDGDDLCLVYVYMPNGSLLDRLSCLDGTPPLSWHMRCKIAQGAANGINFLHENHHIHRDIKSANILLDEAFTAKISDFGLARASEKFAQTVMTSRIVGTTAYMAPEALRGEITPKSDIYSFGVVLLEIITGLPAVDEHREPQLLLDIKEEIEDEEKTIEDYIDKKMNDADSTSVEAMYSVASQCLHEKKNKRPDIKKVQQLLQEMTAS
row,SMILES,IC50
1,"CN(C)[C@H]1CC[C@H](Nc2ncnc3ccc(-c4cnccc4C(F)(F)F)cc23)CC1 [Example 1-36, trans-N,N-dimethyl-N′-{6-[4-(trifluoromethyl)pyridin-3-yl]quinazolin-4-yl}cyclohexane-1,4-diamine]",19 nM
2,"CN(C)[C@H]1CC[C@H](Nc2ncnc3ccc(-c4cncc(C(=O)O)c4)cc23)CC1 [Example 1-37, 5-(4-{[trans-4-(dimethylamino)cyclohexyl]amino}quinazolin-6-yl)pyridine-3-carboxylic acid]",504 nM
3,"COc1cnccc1-c1ccc2ncnc(N[C@H]3CC[C@H](N(C)C)CC3)c2c1 [Example 1-38, trans-N′-[6-(3-methoxypyridin-4-yl)quinazolin-4-yl]-N,N-dimethylcyclohexane-1,4-diamine]",71 nM
4,"CN(C)[C@H]1CC[C@H](Nc2ncnc3ccc(-c4cccnc4C#N)cc23)CC1 [Example 1-39, 3-(4-{[trans-4-(dimethylamino)cyclohexyl]amino}quinazolin-6-yl)pyridine-2-carbonitrile]",43 nM
5,"COCCOc1cncc(-c2ccc3ncnc(N[C@H]4CC[C@H](N(C)C)CC4)c3c2)c1 [Example 1-40, trans-N′-{6-[5-(2-methoxyethoxy)pyridin-3-yl]quinazolin-4-yl}-N,N-dimethylcyclohexane-1,4-diamine]",83 nM
6,"CN(C)[C@H]1CC[C@H](Nc2ncnc3ccc(-c4cncc(S(C)(=O)=O)c4)cc23)CC1 [Example 1-41, trans-N,N-dimethyl-N′-{6-[5-(methylsulfonyl)pyridin-3-yl]quinazolin-4-yl}cyclohexane-1,4-diamine]",2350 nM
7,"CN(C)[C@H]1CC[C@H](Nc2ncnc3ccc(-c4cnc(NCCO)nc4)cc23)CC1 [Example 1-43, 2-{[5-(4-{[trans-4-(dimethylamino)cyclohexyl]amino}quinazolin-6-yl)pyrimidin-2-yl]amino}ethanol]",25 nM
8,"CN(C)[C@H]1CC[C@H](Nc2ncnc3ccc(-c4cccc(C#N)c4)cc23)CC1 [Example 1-44, 3-(4-{[trans-4-(dimethylamino)cyclohexyl]amino}quinazolin-6-yl)benzonitrile]",32 nM
9,"CN(C)[C@H]1CC[C@H](Nc2ncnc3ccc(-c4ccc5[nH]ccc5c4)cc23)CC1 [Example 1-45, trans-N′-[6-(1H-indol-5-yl)quinazolin-4-yl]-N,N-dimethylcyclohexane-1,4-diamine]",81 nM
10,"c1cncc(-c2ccc3ncnc(N[C@H]4CC[C@H](N5CCOCC5)CC4)c3c2)c1 [Example 1-46, N-[trans-4-(morpholin-4-yl)cyclohexyl]-6-(pyridin-3-yl)quinazolin-4-amine]",19 nM
11,"CN(C)[C@H]1CC[C@H](Nc2ncnc3ccc(-c4ccc5c(c4)OCCO5)cc23)CC1 [Example 1-49, trans-N′-[6-(2,3-dihydro-1,4-benzodioxin-6-yl)quinazolin-4-yl]-N,N-dimethylcyclohexane-1,4-diamine]",161 nM
12,"COc1cncc(-c2ccc3ncnc(N[C@H]4CC[C@H](N(C)C)CC4)c3c2)c1 [Example 1-51, trans-N′-[6-(5-methoxypyridin-3-yl)quinazolin-4-yl]-N,N-dimethylcyclohexane-1,4-diamine]",25 nM
13,"COc1ncc(-c2ccc3ncnc(N[C@H]4CC[C@H](N(C)C)CC4)c3c2)cc1F [Example 1-52, trans-N′-[6-(5-fluoro-6-methoxypyridin-3-yl)quinazolin-4-yl]-N,N-dimethylcyclohexane-1,4-diamine]",200 nM
14,"CN(C)[C@H]1CC[C@H](Nc2ncnc3ccc(-c4cncc(F)c4)cc23)CC1 [Example 1-53, trans-N′-[6-(5-fluoropyridin-3-yl)quinazolin-4-yl]-N,N-dimethylcyclohexane-1,4-diamine]",24 nM
15,"CN(C)[C@H]1CC[C@H](Nc2ncnc3ccc(-c4cncc(C#N)c4)cc23)CC1 [Example 1-54, 5-(4-{[trans-4-(dimethylamino)cyclohexyl]amino}quinazolin-6-yl)pyridine-3-carbonitrile]",46 nM
16,"CN(C)[C@H]1CC[C@H](Nc2ncnc3ccc(-c4cnc5[nH]ccc5c4)cc23)CC1 [Example 1-55, trans-N,N-dimethyl-N′-[6-(1H-pyrrolo[2,3-b]pyridin-5-yl)quinazolin-4-yl]cyclohexane-1,4-diamine]",46 nM
17,"CN(C)[C@H]1CC[C@H](Nc2ncnc3ccc(-c4cncc(C(=O)NC(C)(C)C)c4)cc23)CC1 [Example 1-56, N-tert-butyl-5-(4-{[trans-4-(dimethylamino)cyclohexyl]amino}quinazolin-6-yl)pyridine-3-carboxamide]",129 nM
18,"CN1CCOc2cc(-c3ccc4ncnc(N[C@H]5CC[C@H](N(C)C)CC5)c4c3)cnc21 [Example 1-57, trans-N,N-dimethyl-N′-[6-(4-methyl-3,4-dihydro-2H-pyrido[3,2-b][1,4]oxazin-7-yl)quinazolin-4-yl]cyclohexane-1,4-diamine]",6730 nM
19,"CN(C)[C@H]1CC[C@H](Nc2ncnc3ccc(-c4cnc5[nH]ncc5c4)cc23)CC1 [Example 1-58, trans-N,N-dimethyl-N′-[6-(1H-pyrazolo[3,4-b]pyridin-5-yl)quinazolin-4-yl]cyclohexane-1,4-diamine]",21 nM
20,"CN(C)[C@H]1CC[C@H](Nc2ncnc3ccc(-c4cnc5cc[nH]c5c4)cc23)CC1 [Example 1-59, trans-N,N-dimethyl-N′-[6-(1H-pyrrolo[3,2-b]pyridin-6-yl)quinazolin-4-yl]cyclohexane-1,4-diamine]",124 nM
21,"Cn1cnc2cc(-c3ccc4ncnc(N[C@H]5CC[C@H](N(C)C)CC5)c4c3)cnc21 [Example 1-60, trans-N,N-dimethyl-N′-[6-(3-methyl-3H-imidazo[4,5-b]pyridin-6-yl)quinazolin-4-yl]cyclohexane-1,4-diamine]",1690 nM
22,"CN(C)[C@H]1CC[C@H](Nc2ncnc3ccc(-c4cnc5ccoc5c4)cc23)CC1 [Example 1-61, trans-N′-[6-(furo[3,2-b]pyridin-6-yl)quinazolin-4-yl]-N,N-dimethylcyclohexane-1,4-diamine]",109 nM
23,"CN(C)[C@H]1CC[C@H](Nc2ncnc3ccc(-c4cc(F)cc(F)c4)cc23)CC1 [Example 1-62, trans-N′-[6-(3,5-difluorophenyl)quinazolin-4-yl]-N,N-dimethylcyclohexane-1,4-diamine]",23 nM
24,"Fc1cc(F)cc(-c2ccc3ncnc(N[C@H]4CC[C@H](N5CCOCC5)CC4)c3c2)c1 [Example 1-68, 6-(3,5-difluorophenyl)-N-(trans-4-morpholin-4-ylcyclohexyl)quinazolin-4-amine]",25 nM

# These reach a lower IC50. Values come first.
row,IC50,SMILES
1,11 nM,"CN(C)[C@H]1CC[C@H](Nc2ncnc3ccc(-c4cnc(NC5CC5)nc4)cc23)CC1 [Example 1-42, trans-N′-{6-[2-(cyclopropylamino)pyrimidin-5-yl]quinazolin-4-yl}-N,N-dimethylcyclohexane-1,4-diamine]"
2,3 nM,"c1ncc(-c2ccc3ncnc(N[C@H]4CC[C@H](N5CCOCC5)CC4)c3c2)cn1 [Example 1-47, N-[trans-4-(morpholin-4-yl)cyclohexyl]-6-(pyrimidin-5-yl)quinazolin-4-amine]"
3,9 nM,"c1cc(-c2ccc3ncnc(N[C@H]4CC[C@H](N5CCOCC5)CC4)c3c2)ccn1 [Example 1-48, N-[trans-4-(morpholin-4-yl)cyclohexyl]-6-(pyridin-4-yl)quinazolin-4-amine]"
4,11 nM,"CN(C)[C@H]1CC[C@H](Nc2ncnc3ccc(-c4ccnnc4)cc23)CC1 [Example 1-50, trans-N,N-dimethyl-N′-[6-(pyridazin-4-yl)quinazolin-4-yl]cyclohexane-1,4-diamine]"
5,3 nM,"CN(C)[C@H]1CC[C@H](Nc2ncnc3ccc(-c4cc(O)cc(F)c4)cc23)CC1 [Example 1-63, 3-(4-{[trans-4-(dimethylamino)cyclohexyl]amino}quinazolin-6-yl)-5-fluorophenol]"
6,4 nM,"CN(C)[C@H]1CC[C@H](Nc2ncnc3ccc(-c4cc(O)c(F)c(F)c4)cc23)CC1 [Example 1-64, 5-(4-{[trans-4-(dimethylamino)cyclohexyl]amino}quinazolin-6-yl)-2,3-difluorophenol]"
7,< 0.5 nM,"Oc1cncc(-c2ccc3ncnc(N[C@H]4CC[C@H](N5CCOCC5)CC4)c3c2)c1 [Example 1-65, 5-(4-{[trans-4-(morpholin-4-yl)cyclohexyl]amino}quinazolin-6-yl)pyridin-3-ol]"
8,5 nM,"Oc1cc(F)cc(-c2ccc3ncnc(N[C@H]4CC[C@H](N5CCOCC5)CC4)c3c2)c1 [Example 1-66, 3-fluoro-5-{4-[(trans-4-morpholin-4-ylcyclohexyl)amino]quinazolin-6-yl}phenol]"
9,15 nM,"Oc1cc(-c2ccc3ncnc(N[C@H]4CC[C@H](N5CCOCC5)CC4)c3c2)ccn1 [Example 1-67, 4-{4-[(trans-4-morpholin-4-ylcyclohexyl)amino]quinazolin-6-yl}pyridin-2-ol]"
10,18 nM,"COc1cncc(-c2ccc3ncnc(N[C@H]4CC[C@H](N5CCOCC5)CC4)c3c2)c1 [Example 1-69, 6-(5-methoxypyridin-3-yl)-N-[trans-4-(morpholin-4-yl)cyclohexyl]quinazolin-4-amine]"
11,5 nM,"Oc1cc(-c2ccc3ncnc(N[C@H]4CC[C@H](N5CCOCC5)CC4)c3c2)cc(F)c1F [Example 1-70, 2,3-difluoro-5-{4-[(trans-4-morpholin-4-ylcyclohexyl)amino]quinazolin-6-yl}phenol]"
12,17 nM,"COc1ncc(-c2ccc3ncnc(N[C@H]4CC[C@H](N5CCOCC5)CC4)c3c2)cc1N [Example 1-71, 6-(5-amino-6-methoxypyridin-3-yl)-N-(trans-4-morpholin-4-ylcyclohexyl)quinazolin-4-amine]"
